Measurements as given in ChEMBL document CHEMBL5724914, “Linking interpersonal differences in gut microbiota composition and drug biotransformation activity” (2024).

How the values were obtained:
[1] = human gut metagenome, 24 h, 2 µM
[2] = human gut metagenome, 24 h, 2 µM; remark: listed apart in the source
[3] = (§1) The drug is tested on Z-008 corresponding to metagenome with ENA study accession number: PRJEB37062 and ENA sample accession number: ERS12561808 for biotransformation under anaerobic condition. The drug concentrations were measured over 9 timepoints collected between 0 and 24 hours of incubation by liquid-chromatography-coupled mass spectrometry (LC–MS); conditions: 2 µM
[4] = (§2) The drug is tested on WLS-350 corresponding to human gut metagenome with ENA study accession number: PRJEB37062 and ENA sample accession number: ERS12561789 for biotransformation under anaerobic condition. The drug concentrations were measured over 9 timepoints collected between 0 and 24 hours of incubation by liquid-chromatography-coupled mass spectrometry (LC–MS); conditions: 2 µM
[5] = human gut metagenome, 24 h, 2 µM; remark: listed apart in the source
[6] = as §2, with “Z-022” for “WLS-350”, “mouse” for “human”, “ERS12561821” for “ERS12561789”; conditions: 2 µM
[7] = as §2, with “Z-025” for “WLS-350”, “rabbit” for “human”, “ERS12561824” for “ERS12561789”; conditions: 2 µM
[8] = human gut metagenome, 24 h, 2 µM; remark: listed apart in the source
[9] = human gut metagenome, 24 h, 2 µM; remark: listed apart in the source
[10] = human gut metagenome, 24 h, 2 µM; remark: listed apart in the source
[11] = as §2, with “Z-016” for “WLS-350”, “mouse” for “human”, “ERS12561815” for “ERS12561789”; conditions: 2 µM
[12] = as §2, with “Z-003” for “WLS-350”, “pig” for “human”, “ERS12561803” for “ERS12561789”; conditions: 2 µM
[13] = as §2, with “WLS-240” for “WLS-350”, “ERS12561773” for “ERS12561789”; conditions: 2 µM
[14] = human gut metagenome, 24 h, 2 µM; remark: listed apart in the source
[15] = as §2, with “WLS-077” for “WLS-350”, “ERS12561750” for “ERS12561789”; conditions: 2 µM
[16] = human gut metagenome, 24 h, 2 µM; remark: listed apart in the source
[17] = human gut metagenome, 24 h, 2 µM; remark: listed apart in the source
[18] = as §1, with “Z-004” for “Z-008”, “ERS12561804” for “ERS12561808”; conditions: 2 µM
[19] = human gut metagenome, 24 h, 2 µM; remark: listed apart in the source
[20] = as §2, with “WLS-038” for “WLS-350”, “ERS12561745” for “ERS12561789”; conditions: 2 µM
Also: call rule not given here.

Compound: CC(NC(C)(C)C)C(=O)c1cccc(Cl)c1 (stereo not given) [BUPROPION]
- Bacterial Biotransformation [1]: Compound NOT metabolized
- Bacterial Biotransformation [2]: Compound NOT metabolized
- Bacterial Biotransformation [3]: Compound NOT metabolized
- Bacterial Biotransformation [4]: Compound NOT metabolized
- Bacterial Biotransformation [5]: Compound NOT metabolized
- Bacterial Biotransformation [6]: Compound NOT metabolized
- Bacterial Biotransformation [7]: Compound NOT metabolized
- Bacterial Biotransformation [8]: Compound NOT metabolized
- Bacterial Biotransformation [9]: Compound NOT metabolized
- Bacterial Biotransformation [10]: Compound NOT metabolized
- Bacterial Biotransformation [11]: Compound NOT metabolized
- Bacterial Biotransformation [12]: Compound NOT metabolized
- Bacterial Biotransformation [13]: Compound NOT metabolized
- Bacterial Biotransformation [14]: Compound NOT metabolized
- Bacterial Biotransformation [15]: Compound NOT metabolized
- Bacterial Biotransformation [16]: Compound NOT metabolized
- Bacterial Biotransformation [17]: Compound NOT metabolized
- Bacterial Biotransformation [18]: Compound NOT metabolized
- Bacterial Biotransformation [19]: Compound NOT metabolized
- Bacterial Biotransformation [20]: Compound NOT metabolized

Compound: O=C1CC2(CCCC2)CC(=O)N1CCCCN1CCN(c2ncccn2)CC1 [BUSPIRONE]
- Bacterial Biotransformation [1]: Compound metabolized
- Bacterial Biotransformation [2]: Compound metabolized
- Bacterial Biotransformation [3]: Compound NOT metabolized
- Bacterial Biotransformation [4]: Compound metabolized
- Bacterial Biotransformation [5]: Compound NOT metabolized
- Bacterial Biotransformation [6]: Compound NOT metabolized
- Bacterial Biotransformation [7]: Compound NOT metabolized
- Bacterial Biotransformation [8]: Compound NOT metabolized
- Bacterial Biotransformation [9]: Compound NOT metabolized
- Bacterial Biotransformation [10]: Compound metabolized
- Bacterial Biotransformation [11]: Compound NOT metabolized
- Bacterial Biotransformation [12]: Compound metabolized
- Bacterial Biotransformation [13]: Compound metabolized
- Bacterial Biotransformation [14]: Compound NOT metabolized
- Bacterial Biotransformation [15]: Compound NOT metabolized
- Bacterial Biotransformation [16]: Compound metabolized
- Bacterial Biotransformation [17]: Compound metabolized
- Bacterial Biotransformation [18]: Compound NOT metabolized
- Bacterial Biotransformation [19]: Compound metabolized
- Bacterial Biotransformation [20]: Compound NOT metabolized

Compound: CCCC(C)(COC(N)=O)COC(=O)NC(C)C (stereo not given) [CARISOPRODOL]
- Bacterial Biotransformation [1]: Compound metabolized
- Bacterial Biotransformation [2]: Compound metabolized
- Bacterial Biotransformation [3]: Compound metabolized
- Bacterial Biotransformation [4]: Compound metabolized
- Bacterial Biotransformation [5]: Compound metabolized
- Bacterial Biotransformation [6]: Compound metabolized
- Bacterial Biotransformation [7]: Compound metabolized
- Bacterial Biotransformation [8]: Compound NOT metabolized
- Bacterial Biotransformation [9]: Compound NOT metabolized
- Bacterial Biotransformation [10]: Compound metabolized
- Bacterial Biotransformation [11]: Compound metabolized
- Bacterial Biotransformation [12]: Compound metabolized
- Bacterial Biotransformation [13]: Compound metabolized
- Bacterial Biotransformation [14]: Compound metabolized
- Bacterial Biotransformation [15]: Compound metabolized
- Bacterial Biotransformation [16]: Compound metabolized
- Bacterial Biotransformation [17]: Compound metabolized
- Bacterial Biotransformation [18]: Compound metabolized
- Bacterial Biotransformation [19]: Compound metabolized
- Bacterial Biotransformation [20]: Compound metabolized

Compound: COc1ccccc1OCCNCC(O)COc1cccc2[nH]c3ccccc3c12 (stereo not given) [CARVEDILOL]
- Bacterial Biotransformation [1]: Compound metabolized
- Bacterial Biotransformation [2]: Compound metabolized
- Bacterial Biotransformation [3]: Compound NOT metabolized
- Bacterial Biotransformation [4]: Compound metabolized
- Bacterial Biotransformation [5]: Compound NOT metabolized
- Bacterial Biotransformation [6]: Compound NOT metabolized
- Bacterial Biotransformation [7]: Compound metabolized
- Bacterial Biotransformation [8]: Compound NOT metabolized
- Bacterial Biotransformation [9]: Compound metabolized
- Bacterial Biotransformation [10]: Compound metabolized
- Bacterial Biotransformation [11]: Compound NOT metabolized
- Bacterial Biotransformation [12]: Compound NOT metabolized
- Bacterial Biotransformation [13]: Compound metabolized
- Bacterial Biotransformation [14]: Compound NOT metabolized
- Bacterial Biotransformation [15]: Compound metabolized
- Bacterial Biotransformation [16]: Compound NOT metabolized
- Bacterial Biotransformation [17]: Compound metabolized
- Bacterial Biotransformation [18]: Compound NOT metabolized
- Bacterial Biotransformation [19]: Compound metabolized
- Bacterial Biotransformation [20]: Compound metabolized

Compound: CN1CCC[C@@H]1CCO[C@](C)(c1ccccc1)c1ccc(Cl)cc1.O=C(O)/C=C/C(=O)O [CLEMASTINE FUMARATE]
- Bacterial Biotransformation [1]: Compound NOT metabolized
- Bacterial Biotransformation [2]: Compound NOT metabolized
- Bacterial Biotransformation [3]: Compound NOT metabolized
- Bacterial Biotransformation [4]: Compound metabolized
- Bacterial Biotransformation [5]: Compound metabolized
- Bacterial Biotransformation [6]: Compound NOT metabolized
- Bacterial Biotransformation [7]: Compound NOT metabolized
- Bacterial Biotransformation [8]: Compound metabolized
- Bacterial Biotransformation [9]: Compound metabolized
- Bacterial Biotransformation [10]: Compound NOT metabolized
- Bacterial Biotransformation [11]: Compound NOT metabolized
- Bacterial Biotransformation [12]: Compound NOT metabolized
- Bacterial Biotransformation [13]: Compound NOT metabolized
- Bacterial Biotransformation [14]: Compound metabolized
- Bacterial Biotransformation [15]: Compound NOT metabolized
- Bacterial Biotransformation [16]: Compound NOT metabolized
- Bacterial Biotransformation [17]: Compound NOT metabolized
- Bacterial Biotransformation [18]: Compound NOT metabolized
- Bacterial Biotransformation [19]: Compound NOT metabolized
- Bacterial Biotransformation [20]: Compound metabolized

Compound: CC(C)(C)NCC(O)c1cc(Cl)c(N)c(Cl)c1 (stereo not given) [CLENBUTEROL]
- Bacterial Biotransformation [1]: Compound NOT metabolized
- Bacterial Biotransformation [2]: Compound NOT metabolized
- Bacterial Biotransformation [3]: Compound NOT metabolized
- Bacterial Biotransformation [4]: Compound NOT metabolized
- Bacterial Biotransformation [5]: Compound NOT metabolized
- Bacterial Biotransformation [6]: Compound NOT metabolized
- Bacterial Biotransformation [7]: Compound NOT metabolized
- Bacterial Biotransformation [8]: Compound NOT metabolized
- Bacterial Biotransformation [9]: Compound NOT metabolized
- Bacterial Biotransformation [10]: Compound NOT metabolized
- Bacterial Biotransformation [11]: Compound NOT metabolized
- Bacterial Biotransformation [12]: Compound NOT metabolized
- Bacterial Biotransformation [13]: Compound NOT metabolized
- Bacterial Biotransformation [14]: Compound NOT metabolized
- Bacterial Biotransformation [15]: Compound NOT metabolized
- Bacterial Biotransformation [16]: Compound NOT metabolized
- Bacterial Biotransformation [17]: Compound NOT metabolized
- Bacterial Biotransformation [18]: Compound NOT metabolized
- Bacterial Biotransformation [19]: Compound NOT metabolized
- Bacterial Biotransformation [20]: Compound NOT metabolized

Compound: C[N+]12CCC(CC1)C(OC(=O)C(O)(c1ccccc1)c1ccccc1)C2.[Br-] (stereo not given) [CLIDINIUM BROMIDE]
- Bacterial Biotransformation [1]: Compound metabolized
- Bacterial Biotransformation [2]: Compound metabolized
- Bacterial Biotransformation [3]: Compound NOT metabolized
- Bacterial Biotransformation [4]: Compound metabolized
- Bacterial Biotransformation [5]: Compound NOT metabolized
- Bacterial Biotransformation [6]: Compound NOT metabolized
- Bacterial Biotransformation [7]: Compound NOT metabolized
- Bacterial Biotransformation [8]: Compound NOT metabolized
- Bacterial Biotransformation [9]: Compound metabolized
- Bacterial Biotransformation [10]: Compound NOT metabolized
- Bacterial Biotransformation [11]: Compound NOT metabolized
- Bacterial Biotransformation [12]: Compound metabolized
- Bacterial Biotransformation [13]: Compound metabolized
- Bacterial Biotransformation [14]: Compound NOT metabolized
- Bacterial Biotransformation [15]: Compound NOT metabolized
- Bacterial Biotransformation [16]: Compound NOT metabolized
- Bacterial Biotransformation [17]: Compound NOT metabolized
- Bacterial Biotransformation [18]: Compound NOT metabolized
- Bacterial Biotransformation [19]: Compound NOT metabolized
- Bacterial Biotransformation [20]: Compound NOT metabolized

Compound: Clc1cccc(Cl)c1N=C1NCCN1 [CLONIDINE]
- Bacterial Biotransformation [1]: Compound metabolized
- Bacterial Biotransformation [2]: Compound metabolized
- Bacterial Biotransformation [3]: Compound NOT metabolized
- Bacterial Biotransformation [4]: Compound NOT metabolized
- Bacterial Biotransformation [5]: Compound NOT metabolized
- Bacterial Biotransformation [6]: Compound NOT metabolized
- Bacterial Biotransformation [7]: Compound NOT metabolized
- Bacterial Biotransformation [8]: Compound NOT metabolized
- Bacterial Biotransformation [9]: Compound metabolized
- Bacterial Biotransformation [10]: Compound metabolized
- Bacterial Biotransformation [11]: Compound NOT metabolized
- Bacterial Biotransformation [12]: Compound metabolized
- Bacterial Biotransformation [13]: Compound metabolized
- Bacterial Biotransformation [14]: Compound NOT metabolized
- Bacterial Biotransformation [15]: Compound NOT metabolized
- Bacterial Biotransformation [16]: Compound NOT metabolized
- Bacterial Biotransformation [17]: Compound metabolized
- Bacterial Biotransformation [18]: Compound metabolized
- Bacterial Biotransformation [19]: Compound NOT metabolized
- Bacterial Biotransformation [20]: Compound NOT metabolized
